Patent US20130122147A1, “METHODS FOR ENHANCING THE PALATABILITY OF COMESTIBLE COMPOSITIONS” (priority 2010, published 2013)

System: dogs
Assay: Two-bowl choice palatability test of pet foods
Type: in vivo
Protocol: Palatability testing followed the industry standard protocol for assessing preference, i.e., the two-bowl choice test. The dogs were tested individually inside their kennels. The panels consisted of a mix of breeds, distributed as equally as possible. The dogs were at least 12 months of age and the sex distribution was as equal as possible within panels. A choice of two bowls each with the same amount food, the test and the control diets, was offered simultaneously. The maximum length of the time the products were offered to the dogs was 20 minutes. Water was available at all times via an automatic water system. Bowl assignment for the foods was always counterbalanced.
At the end of a test, food consumption for each pet food for each dog was determined by subtracting the amount of food remaining in the bowls from what was initially offered to the dogs. A dog's preference was determined based on which food was most consumed.
The experiment was repeated twice.

SMILES: CCCCCCCC/C=C\CCCCCCCC(=O)NCCO [OEA, N-oleoyl-ethanolamide]
- Effect of OEA on palatability of the pet food (result in words) (food of Table 9 (0.41% OEA in basal meal) vs control Ex 7): enhanced the palatability
- Effect of OEA on palatability of the pet foods (result in words) (foods of Table 8 (0.066-0.566% OEA) vs control Ex 1): enhanced the palatability
